Entries after “also recorded” stand apart in the source; their conditions may differ.
Experiments:
[1] = Body weight, additional studies; type: in vivo, nude mice; details: treatment period
Experimental: Human prostate and human breast tumors were grown in two separate groups of nude mice. Six mice in each group were divided in two subgroups of 3 mice each. Three mice were treated with intratumoral injections of either Indium-111-oxine or Indium-111-Merc. Each group of mice was then placed in rodent cages separately and cared for with regular diet and water ad lib. Each day the animals were weighed, and tumor diameter was measured three times with a Vernier caliper.

[2] = Distribution of radioactivity in tumor and organs at sacrifice; type: in vivo, nude mice
Description: (§1) These organs were then weighed.

[3] = Retention of radioactivity after intratumoral injection, first study (gamma camera, ionization chamber); type: in vivo, athymic nude mice
[4] = tested on: human prostate cancer cells DU145; details: one month
Experimental: Additional feasibility studies were performed using two lipid soluble agents, Indium-111-oxine and Indium-111-Mercaptopyridine-N-oxide (Merc). Human prostate and human breast tumors were grown in two separate groups of nude mice. Six mice in each group were divided in two subgroups of 3 mice each. Three mice were treated with intratumoral injections of either Indium-111-oxine or Indium-111-Merc. Each group of mice was then placed in rodent cages separately and cared for with regular diet and water ad lib. Each day the animals were weighed, and tumor diameter was measured three times with a Vernier caliper.
Radioactivity received by each animal was carefully measured, and each day the amount of radioactivity retained in the animal body was measured using an energy calibrated radiation dose calibrator. Two weeks after the first injection, a second dose of the same agent was readministered, also intratumorally and the procedure was followed as described above, for the next two weeks. […] Indium-111 associated with each tissue was counted, and the radioactivity distributed in each organ was calculated as the percent of the total radioactivity retrained in each animal. Histology on critical organs, such as the liver, bladder, and kidney, as well as tumor histology, was assessed in treated animals and in untreated control animals. […]

[5] = tested on: human colorectal carcinoma cells LS174T; details: single intratumoral injection, day 22, control tumor 3.2 cm
Experimental: Tumors were allowed to grow to approximately 0.5 cm in diameter.
On day one, two of the four tumor-bearing mice received a single intratumoral injection of approximately 100 μl Indium-111-oxine. Mice were placed in an ionization chamber, and radioactivity was recorded after the injection and then daily for 28 days. On each day, radioactivity was corrected for decay, and the percent of injected dose retained in the animal was calculated and recorded. Animals were also weighed daily in a calibrated balance.
On day one, all four mice were lightly anesthetized and photographs taken. Mice receiving Indium-111-oxine were also imaged with a gamma camera 28 days later. This qualitatively recorded the distribution of radioactivity, 28 days after it was injected.The control animals received a single intratumoral injection of 100 μl of 25% ethanol in 0.9% NaCl. Two radioactive animals and the control animals were then cared for in two separated cages and allowed to eat and drink at liberty.
On day 22, the two mice treated with Indium-111-oxine received 100 μl of Indium-111-Merc each in two places in tumors. The control animals also received two intratumoral injection of 0.05 M phosphate buffer pH−7.4.
As before, the mice were weighed daily and radioactivity remaining in their bodies was measured for an additional 10 days.

[6] = tested on: cells; details: cited from earlier work
[7] = tested on: human breast cancer cells T47D; test: Intratumoral injection study on T47D tumor-bearing nude mice: tumor size; type: in vivo; details: one month
Experimental: as §1
Indium-111-Merc was prepared also by a method described previously. (Thakur et al, J Nucl Med 26: 518-523, 1985). Briefly, to one ml 0.067 M phosphate buffer pH 7.4, a required quantity of Indium-111-chloride was added followed by 50 μg Merc in 50 μl 0.067 M phosphate buffer pH 7.4. The reaction mixture was vortexed, and resultant Indium-111-Merc was extracted in chloroform or methylene chloride. This was evaporated to dryness, and the complex was taken up in 50 μl ethanol and 150 μl 0.9% NaCl. A known amount of radioactivity in 50 μl was then injected directly into the tumor in each mouse.
For treatment with Indium-111-Merc, human breast cancer cells (5×10^6) T47D were implanted similarly. These were also allowed to grow to up to 0.5 cm in diameter.

[8] = cited from earlier work

Compound | body weight change ([1]; DU145 tumor-bearing mice, on the average) | kidney uptake at sacrifice ([2]; DU145 tumor-bearing mice) | liver uptake at sacrifice ([2]; DU145 tumor-bearing mice) | injected activity retained in tumor at sacrifice ([2]; DU145 tumor-bearing mice, corrected for decay) | radioactivity retained in the tumor (gamma camera image) ([3]; 22 days after intratumoral Indium-111-oxine injection) | tumor growth in treated mice (tumor size versus time, FIG. 4) ([4]; DU145 tumor-bearing nude mice) | average tumor growth during the treatment period ([4]; DU145 tumors, two intratumoral doses two weeks apart, untreated mice 200%) | tumor growth in treated animal [5] | labeling of cells in the presence of plasma [6] | tumor growth in treated mice (tumor size versus time, FIG. 5) ([7]; T47D tumor-bearing nude mice) | average tumor growth in the treated mice ([7]; T47D tumors, two intratumoral doses two weeks apart, untreated controls 477%) | body weight change ([1]; T47D tumor-bearing mice) | injected activity retained in tumor at sacrifice ([2]; T47D tumor-bearing mice) | kidney activity at sacrifice ([2]; T47D tumor-bearing mice) | liver activity at sacrifice ([2]; T47D tumor-bearing mice) | stability in plasma [8] | radioactivity still in the tumor (gamma camera image) ([3]; 10 days after intratumoral Indium-111-Merc injection) | radioactivity retained in animal body ([3]; ten days after the injection of Indium-111-Merc)
[111In+3].[O-]c1cccc2cccnc12.[O-]c1cccc2cccnc12.[O-]c1cccc2cccnc12 [Indium-111-oxine, Indium-111-oxine (8-hydroxyquinoline)] | none of the treated or untreated mice either gained or lost body weight | 7.5% | 5.4% | 86.5% | a major proportion; also recorded: nearly all | arrested | 117% | has not grown | not capable of binding cells in plasma; also recorded: cannot efficiently label cells | – | – | – | – | – | – | – | – | –
Indium-111-Merc (2-Mercaptopyridine-N-oxide) | – | – | – | – | – | – | – | – | can label cells in the presence of plasma | arrested | 172% | gained some body weight | 92.97% | 4.03% | 1.02% | does not break down in plasma | a major proportion | all

— patent publication US6685913B1, “Lipid soluble radioactive metal chelates for tumor therapy” (Thomas Jefferson University, priority 1999, dated 2004)
